{"source": "patent US9944607B2", "about": "“Thiohydantoin derivatives and uses thereof” (Whitehead Institute for Biomedical Research, priority 2012, dated 2018)", "data": [{"system": "Candida albicans CaCi-2", "assay": "Primary assay: C. albicans CaCi-2 growth inhibition (Alamar Blue)", "assay_type": "cell-based", "conditions": "Table 6; n = 3; 48 hours; tested up to 26 μM", "values": [{"smiles": "Cc1ccc(N2C(=O)N(C)C(=O)C23CCCCC3)cc1", "note": "[compound 56604845]", "Growth Inhibition Activity, IC50 (μM), C. albicans (n = 3) CaCi-2": "inactive"}, {"smiles": "CCOC(=O)N1C(=S)N(c2ccc(C)cc2)C(=O)C12CCCCC2", "note": "[compound 56604852]", "Growth Inhibition Activity, IC50 (μM), C. albicans (n = 3) CaCi-2": "inactive"}, {"smiles": "CCCCN1C(=O)N(c2ccc(C)cc2)C2(CCCCC2)C1=S", "note": "[compound 56604857]", "Growth Inhibition Activity, IC50 (μM), C. albicans (n = 3) CaCi-2": "inactive"}, {"smiles": "CCOC(=O)N1C(=S)N(c2ccc(C)cc2)C2(CCCCC2)/C1=N/Cc1ccccc1", "note": "[compound 56604867]", "Growth Inhibition Activity, IC50 (μM), C. albicans (n = 3) CaCi-2": "inactive"}, {"smiles": "CCCCN1C(=O)N(c2ccc(C)cc2)C2(CCCCC2)C1=O", "note": "[compound 56604877]", "Growth Inhibition Activity, IC50 (μM), C. albicans (n = 3) CaCi-2": "inactive"}]}, {"system": "Candida albicans CaCi-2", "assay": "Primary assay: C. albicans CaCi-2 growth inhibition (Alamar Blue)", "assay_type": "cell-based", "conditions": "Table 7; n = 3; 48 hours; tested up to 26 μM", "values": [{"smiles": "Cc1ccc(N2C(=O)C3(CCCCC3)NC2=S)cc1", "note": "[compound 56604856]", "Growth Inhibition Activity, IC50 (μM), C. albicans (n = 3) CaCi-2": "inactive"}, {"smiles": "O=C1NC(=S)N(c2ccc(F)cc2)C12CCCCC2", "note": "[compound 56604862]", "Growth Inhibition Activity, IC50 (μM), C. albicans (n = 3) CaCi-2": "inactive"}, {"smiles": "Cc1ccc(N2C(=S)NC(=O)C23CCCC3)cc1", "note": "[compound 56604876]", "Growth Inhibition Activity, IC50 (μM), C. albicans (n = 3) CaCi-2": "inactive"}, {"smiles": "Cc1ccc(N2C(=S)NC(=O)C2(C)C)cc1", "note": "[compound 56604879]", "Growth Inhibition Activity, IC50 (μM), C. albicans (n = 3) CaCi-2": "inactive"}, {"smiles": "Cc1ccc(N2C(=O)NC(=O)C23CCCCC3)cc1", "note": "[compound 56604883]", "Growth Inhibition Activity, IC50 (μM), C. albicans (n = 3) CaCi-2": "inactive"}, {"smiles": "Cc1ccc(N2C(=O)C(=O)NC2=S)cc1", "note": "[compound 56604884]", "Growth Inhibition Activity, IC50 (μM), C. albicans (n = 3) CaCi-2": "inactive"}, {"smiles": "Cc1ccc(N2C(=S)NC(=O)C23CCOCC3)cc1", "note": "[compound 56604885]", "Growth Inhibition Activity, IC50 (μM), C. albicans (n = 3) CaCi-2": "inactive"}]}, {"system": "Candida albicans CaCi-17", "assay": "Primary assay: C. albicans CaCi-17 growth inhibition (Alamar Blue)", "assay_type": "cell-based", "conditions": "Table 6; n = 3; 48 hours; tested up to 26 μM", "values": [{"smiles": "Cc1ccc(N2C(=O)N(C)C(=O)C23CCCCC3)cc1", "note": "[compound 56604845]", "Growth Inhibition Activity, IC50 (μM), C. albicans (n = 3) CaCi-17": "inactive"}, {"smiles": "CCOC(=O)N1C(=S)N(c2ccc(C)cc2)C(=O)C12CCCCC2", "note": "[compound 56604852]", "Growth Inhibition Activity, IC50 (μM), C. albicans (n = 3) CaCi-17": "inactive"}, {"smiles": "CCCCN1C(=O)N(c2ccc(C)cc2)C2(CCCCC2)C1=S", "note": "[compound 56604857]", "Growth Inhibition Activity, IC50 (μM), C. albicans (n = 3) CaCi-17": "inactive"}, {"smiles": "CCOC(=O)N1C(=S)N(c2ccc(C)cc2)C2(CCCCC2)/C1=N/Cc1ccccc1", "note": "[compound 56604867]", "Growth Inhibition Activity, IC50 (μM), C. albicans (n = 3) CaCi-17": "inactive"}, {"smiles": "CCCCN1C(=O)N(c2ccc(C)cc2)C2(CCCCC2)C1=O", "note": "[compound 56604877]", "Growth Inhibition Activity, IC50 (μM), C. albicans (n = 3) CaCi-17": "inactive"}]}, {"system": "Candida albicans CaCi-17", "assay": "Primary assay: C. albicans CaCi-17 growth inhibition (Alamar Blue)", "assay_type": "cell-based", "conditions": "Table 7; n = 3; 48 hours; tested up to 26 μM", "values": [{"smiles": "Cc1ccc(N2C(=O)C3(CCCCC3)NC2=S)cc1", "note": "[compound 56604856]", "Growth Inhibition Activity, IC50 (μM), C. albicans (n = 3) CaCi-17": "inactive"}, {"smiles": "O=C1NC(=S)N(c2ccc(F)cc2)C12CCCCC2", "note": "[compound 56604862]", "Growth Inhibition Activity, IC50 (μM), C. albicans (n = 3) CaCi-17": "inactive"}, {"smiles": "Cc1ccc(N2C(=S)NC(=O)C23CCCC3)cc1", "note": "[compound 56604876]", "Growth Inhibition Activity, IC50 (μM), C. albicans (n = 3) CaCi-17": "inactive"}, {"smiles": "Cc1ccc(N2C(=S)NC(=O)C2(C)C)cc1", "note": "[compound 56604879]", "Growth Inhibition Activity, IC50 (μM), C. albicans (n = 3) CaCi-17": "inactive"}, {"smiles": "Cc1ccc(N2C(=O)NC(=O)C23CCCCC3)cc1", "note": "[compound 56604883]", "Growth Inhibition Activity, IC50 (μM), C. albicans (n = 3) CaCi-17": "inactive"}, {"smiles": "Cc1ccc(N2C(=O)C(=O)NC2=S)cc1", "note": "[compound 56604884]", "Growth Inhibition Activity, IC50 (μM), C. albicans (n = 3) CaCi-17": "inactive"}, {"smiles": "Cc1ccc(N2C(=S)NC(=O)C23CCOCC3)cc1", "note": "[compound 56604885]", "Growth Inhibition Activity, IC50 (μM), C. albicans (n = 3) CaCi-17": "inactive"}]}, {"system": "NIH-3T3 mammalian fibroblasts", "assay": "Counterscreen mammalian cell toxicity assay (Alamar Blue)", "assay_type": "cell-based, murine", "conditions": "Mus musculus, NIH3T3, read-out: Growth Inhibition Activity, IC50 (μM), 3T3 Fibroblasts (n = 1); Table 6; n = 1; 48 hours; tested up to 26 μM", "method": "(§1) Quiescent murine fibroblasts were subjected to incubation with compounds of interest for 48 hours. Subsequent cell viability was determined via measuring Alamar Blue fluorescence.\n(§2) Procedures • After overnight culture, pin compounds into wells at 100 nL/well using the CyBio CyBi-Well pinning instrument. • Return the plates to the tissue culture incubator and incubate the culture for an additional 48 hours at 37° C. under 5% CO2. • At the completion of this incubation, add Alamar Blue solution diluted 1:40 in PBS to each well (10 μL/well) to achieve a final dilution of 1:200. • Incubate the plates for an additional 2-3 hours at 37° C. under 5% CO2. • Read the Relative Fluorescence Intensity (RFU) of wells on a standard plate reader as a measure of relative cell growth. […] 4.4.", "units": {"IC50": "µM"}, "values": [{"smiles": "CCCCN1C(=O)N(c2ccc(C)cc2)C2(CCCCC2)C1=S", "note": "[compound 56604857]", "IC50": 20.9}]}, {"system": "NIH-3T3 mammalian fibroblasts", "assay": "Counterscreen mammalian cell toxicity assay (Alamar Blue)", "assay_type": "cell-based, murine", "conditions": "Mus musculus, NIH3T3, read-out: Growth Inhibition Activity, IC50 (μM), 3T3 Fibroblasts (n = 1); Table 7; n = 1; 48 hours; tested up to 26 μM", "method": "as §1, §2", "units": {"IC50": "µM"}, "values": [{"smiles": "Cc1ccc(N2C(=S)NC(=O)C23CCCC3)cc1", "note": "[compound 56604876]", "IC50": 32.6}]}, {"system": "NIH-3T3 mammalian fibroblasts", "assay": "Counterscreen mammalian cell toxicity assay (Alamar Blue)", "assay_type": "cell-based, murine", "conditions": "Table 6; n = 1; 48 hours; tested up to 26 μM", "method": "as §1, §2", "values": [{"smiles": "Cc1ccc(N2C(=O)N(C)C(=O)C23CCCCC3)cc1", "note": "[compound 56604845]", "Growth Inhibition Activity, IC50 (μM), 3T3 Fibroblasts (n = 1)": "Inactive"}, {"smiles": "CCOC(=O)N1C(=S)N(c2ccc(C)cc2)C(=O)C12CCCCC2", "note": "[compound 56604852]", "Growth Inhibition Activity, IC50 (μM), 3T3 Fibroblasts (n = 1)": "Inactive"}, {"smiles": "CCOC(=O)N1C(=S)N(c2ccc(C)cc2)C2(CCCCC2)/C1=N/Cc1ccccc1", "note": "[compound 56604867]", "Growth Inhibition Activity, IC50 (μM), 3T3 Fibroblasts (n = 1)": "Inactive"}, {"smiles": "CCCCN1C(=O)N(c2ccc(C)cc2)C2(CCCCC2)C1=O", "note": "[compound 56604877]", "Growth Inhibition Activity, IC50 (μM), 3T3 Fibroblasts (n = 1)": "Inactive"}]}, {"system": "NIH-3T3 mammalian fibroblasts", "assay": "Counterscreen mammalian cell toxicity assay (Alamar Blue)", "assay_type": "cell-based, murine", "conditions": "Table 7; n = 1; 48 hours; tested up to 26 μM", "method": "as §1, §2", "values": [{"smiles": "Cc1ccc(N2C(=O)C3(CCCCC3)NC2=S)cc1", "note": "[compound 56604856]", "Growth Inhibition Activity, IC50 (μM), 3T3 Fibroblasts (n = 1)": "Inactive"}, {"smiles": "O=C1NC(=S)N(c2ccc(F)cc2)C12CCCCC2", "note": "[compound 56604862]", "Growth Inhibition Activity, IC50 (μM), 3T3 Fibroblasts (n = 1)": "Inactive"}, {"smiles": "Cc1ccc(N2C(=S)NC(=O)C2(C)C)cc1", "note": "[compound 56604879]", "Growth Inhibition Activity, IC50 (μM), 3T3 Fibroblasts (n = 1)": "Inactive"}, {"smiles": "Cc1ccc(N2C(=O)NC(=O)C23CCCCC3)cc1", "note": "[compound 56604883]", "Growth Inhibition Activity, IC50 (μM), 3T3 Fibroblasts (n = 1)": "Inactive"}, {"smiles": "Cc1ccc(N2C(=O)C(=O)NC2=S)cc1", "note": "[compound 56604884]", "Growth Inhibition Activity, IC50 (μM), 3T3 Fibroblasts (n = 1)": "Inactive"}, {"smiles": "Cc1ccc(N2C(=S)NC(=O)C23CCOCC3)cc1", "note": "[compound 56604885]", "Growth Inhibition Activity, IC50 (μM), 3T3 Fibroblasts (n = 1)": "Inactive"}]}, {"system": "not listed separately", "assay": "Solubility in PBS pH 7.4 with 1% DMSO", "conditions": "phosphate buffered saline with 1% DMSO, pH 7.4, aqueous buffer, kinetic from dmso stock", "method": "Solubility was determined in phosphate buffered saline (PBS) pH 7.4 with 1% DMSO. Each compound was prepared in duplicate at 100 μM in both 100% DMSO and PBS with 1% DMSO. Compounds were allowed to equilibrate at room temperature with a 250 rpm orbital shake for 24 hours. After equilibration, samples were analyzed by UPLC-MS (Waters, Milford, Mass.) with compounds detected by SIR detection on a single quadrupole mass spectrometer. The DMSO samples were used to create a two-point calibration curve to which the response in PBS was fit.", "units": {"solubility at 24 h": "µM"}, "values": [{"smiles": "Cc1ccc(N2C(=O)N(C)C(=O)C23CCCCC3)cc1", "note": "[compound 56604845]", "solubility at 24 h": 100}, {"smiles": "CCOC(=O)N1C(=S)N(c2ccc(C)cc2)C(=O)C12CCCCC2", "note": "[compound 56604852]", "solubility at 24 h": "< 1"}, {"smiles": "Cc1ccc(N2C(=O)C3(CCCCC3)NC2=S)cc1", "note": "[compound 56604856]", "solubility at 24 h": 5.9}, {"smiles": "CCCCN1C(=O)N(c2ccc(C)cc2)C2(CCCCC2)C1=S", "note": "[compound 56604857]", "solubility at 24 h": "< 1"}, {"smiles": "O=C1NC(=S)N(c2ccc(F)cc2)C12CCCCC2", "note": "[compound 56604862]", "solubility at 24 h": 43}, {"smiles": "CCOC(=O)N1C(=S)N(c2ccc(C)cc2)C2(CCCCC2)/C1=N/Cc1ccccc1", "note": "[compound 56604867]", "solubility at 24 h": 26}, {"smiles": "Cc1ccc(N2C(=S)NC(=O)C23CCCC3)cc1", "note": "[compound 56604876]", "solubility at 24 h": 72}, {"smiles": "CCCCN1C(=O)N(c2ccc(C)cc2)C2(CCCCC2)C1=O", "note": "[compound 56604877]", "solubility at 24 h": 64}, {"smiles": "Cc1ccc(N2C(=S)NC(=O)C2(C)C)cc1", "note": "[compound 56604879]", "solubility at 24 h": 55}, {"smiles": "Cc1ccc(N2C(=O)NC(=O)C23CCCCC3)cc1", "note": "[compound 56604883]", "solubility at 24 h": 14}, {"smiles": "Cc1ccc(N2C(=O)C(=O)NC2=S)cc1", "note": "[compound 56604884]", "solubility at 24 h": 21}, {"smiles": "Cc1ccc(N2C(=S)NC(=O)C23CCOCC3)cc1", "note": "[compound 56604885]", "solubility at 24 h": "> 100"}]}]}
